From patent US8933233B2, “1,3,4-oxadiazole and 1,3,4-thiadiazole β-lactamase inhibitors” (priority 2012, dated 2015)
Structures can show the parent of a compound that is named as a salt.

Columns and labels:
[1] = tested on: bacterial strains that express KPC β-lactamases; assay: Synergy MIC / standard BLI potentiation MIC assay, strains expressing KPC β-lactamases; type: cell-based, isogenic E. coli and clinical isolates; settings: more active for at least one KPC strain and/or better spectrum; comparator Avibactam
Method: (§1) Unless otherwise indicated, the activity of the BLI compounds can be described by the MIC value obtained from a Synergy MIC assay or a BLI potentiation assay (e.g as described herein), both of which are run in the presence of a β-lactam.
(§2) The experimental protocol was performed according to Clinical and Laboratory Standards Institute (CLSI) guidelines with modifications as described below (CLSI guidelines can be derived from the CLSI document M07-A9 published in January 2012: “Methods for Dilution Antimicrobial Susceptibility Tests for Bacteria That Grow Aerobically; Approved Standard-Ninth Edition”).
(§3) To prepare for MIC testing, frozen glycerol stocks of clinical isolates (Klebsiella pneumoniae, Eschericia coli, Enterobacter spp, Citrobacter spp, or Pseudomonas aeruginosa) were used to streak for isolated colonies on rich, non-selective, tryptic soy agar containing 5% sheep's blood (TSAB). Frozen glycerol stocks of laboratory engineered, isogenic E. coli strains, which contain cloned β-lactamase expressing plasmids were used to streak for isolated colonies on rich, selective LB agar supplemented with 25 μg/mL tetracycline to maintain the plasmid. All strains were incubated at 37° C. for 18-24 hrs.
(§4) On the day of testing, primary cultures were started by scraping off 5-10 colonies from the TSAB plates containing clinical strains or the tetracycline supplemented LB plates containing engineered strains. The clinical strain material was suspended in ˜5 mL of cation adjusted Mueller Hinton Broth (CAMHB) in 14 mL culture tubes. The engineered strain material was suspended in CAMHB (supplemented with 25 μg/mL tetracycline) in 14 mL culture tubes. All strains were incubated at 37° C. with aeration (200 rpm) for ˜2 hrs until the optical density at 600 nm (OD600) was ≧0.1.
(§5) The two compound components of the assay were each diluted in CAMHB and added to the 96-well broth microdilution assay plates. 50 μL of the β-lactam was added to each well of the assay plate in 2-fold dilutions with final concentrations ranging from 128 to 0.13 μg/mL. 25 μL of the BLI compound was added to all wells in the broth microdilution plates at a final concentration of 4 μg/mL. Inoculum cultures were prepared by standardizing the primary cultures to OD600=0.1 and then adding 20 μL of the adjusted primary culture per 1 mL CAMHB for clinical strains or CAMHB (supplemented with tetracycline at 100 μg/mL) for engineered strains, so that the final inoculum density was ˜10^5 colony forming units per milliliter. Diluted inoculum cultures were used to inoculate 25 μL per well in 96-well broth microdilution assay plates. The final volume of each well was 100 μL and contained a β-lactam at different concentrations, a BLIcompound at 4 μg/mL concentration, the bacterial culture at an OD600 of approximately 0.001 and when necessary tetracycline at 25 μg/mL.
(§6) Plates were incubated for 18-20 hours at 37° C. with aeration (200 rpm). Following incubation, growth was confirmed visually placing plates over a viewing apparatus (stand with a mirror underneath) and then OD600 was measured using a SpectraMax 340PC384 plate reader (Molecular Devices, Sunnyvale, Calif.). Growth was defined as turbidity that could be detected with the naked eye or achieving minimum OD600 of 0.1. MIC values were defined as the lowest concentration producing no visible turbidity.
(§7) The synergy MIC (sMIC) assay determines the concentration of the BLI required to potentiate the activity of a fixed concentration of a β-lactam antibiotic against β-lactamase producing bacterial strains. The experimental protocol was performed according to Clinical and Laboratory Standards Institute (CLSI) guidelines with modifications as described below (CLSI guidelines can be derived from the CLSI document M07-A9 published in January 2012: “Methods for Dilution Antimicrobial Susceptibility Tests for Bacteria That Grow Aerobically; Approved Standard-Ninth Edition”). […]

[2] = tested on: bacterial strains that express the class D cephalosporinase OXA-15; assay: Synergy MIC / standard BLI potentiation MIC assay, strains expressing OXA-15; type: cell-based, E. coli; settings: in presence of a β-lactam; comparator Avibactam (CCC)
Method: as §1, §2, §3, §4, §5, §6, §7

Row | SMILES | activity and/or spectrum of activity against bacterial strains that express KPC β-lactamases, compared with Avibactam [1] | activity against bacterial strains that express OXA-15, compared with Avibactam [2]
1 | O=C1N2C[C@@H](CC[C@H]2c2nnco2)N1OS(=O)(=O)O [Compound 701, (2S,5R)-2-(1,3,4-oxadiazol-2-yl)-7-oxo-1,6-diazabicyclo[3.2.1]octan-6-yl hydrogen sulfate] | more active than Avibactam | more active than Avibactam
2 | NCc1nnc([C@@H]2CC[C@@H]3CN2C(=O)N3OS(=O)(=O)O)o1 [Compound 702, (2S,5R)-2-(5-(aminomethyl)-1,3,4-oxadiazol-2-yl)-7-oxo-1,6-diazabicyclo[3.2.1]octan-6-yl hydrogen sulfate] | more active than Avibactam | more active than Avibactam
3 | NCCc1nnc([C@@H]2CC[C@@H]3CN2C(=O)N3OS(=O)(=O)O)o1 [Compound 703, (2S,5R)-2-(5-(2-aminoethyl)-1,3,4-oxadiazol-2-yl)-7-oxo-1,6-diazabicyclo[3.2.1]octan-6-yl hydrogen sulfate] | more active than Avibactam | more active than Avibactam
4 | N=C(N)NCCc1nnc([C@@H]2CC[C@@H]3CN2C(=O)N3OS(=O)(=O)O)o1 [Compound 705, (2S,5R)-2-(5-(2-guanidinoethyl)-1,3,4-oxadiazol-2-yl)-7-oxo-1,6-diazabicyclo[3.2.1]octan-6-yl hydrogen sulfate] | more active than Avibactam | more active than Avibactam
5 | NC(=O)c1nnc([C@@H]2CC[C@@H]3CN2C(=O)N3OS(=O)(=O)O)o1 [Compound 706, (2S,5R)-2-(5-carbamoyl-1,3,4-oxadiazol-2-yl)-7-oxo-1,6-diaza-bicyclo[3.2.1]octan-6-yl hydrogen sulfate] | more active than Avibactam | more active than Avibactam
6 | O=C1N2C[C@@H](CC[C@H]2c2nnc(C3CNC3)o2)N1OS(=O)(=O)O [Compound 708, (2S,5R)-2-(5-(azetidin-3-yl)-1,3,4-oxadiazol-2-yl)-7-oxo-1,6-diazabicyclo[3.2.1]octan-6-yl hydrogen sulfate] | more active than Avibactam | more active than Avibactam
7 | N=C(N)N1CC(c2nnc([C@@H]3CC[C@@H]4CN3C(=O)N4OS(=O)(=O)O)o2)C1 [Compound 709, (2S,5R)-2-(5-(1-carbamimidoylazetidin-3-yl)-1,3,4-oxadiazol-2-yl)-7-oxo-1,6-diazabicyclo[3.2.1]octan-6-yl hydrogen sulfate] | more active than Avibactam | more active than Avibactam
8 | O=C1N2C[C@@H](CC[C@H]2c2nnc(C3CCNC3)o2)N1OS(=O)(=O)O (stereo partly drawn) [Compound 710, (2S,5R)-7-oxo-2-(5-(pyrrolidin-3-yl)-1,3,4-oxadiazol-2-yl)-1,6-diazabicyclo[3.2.1]octan-6-yl hydrogen sulfate] | more active than Avibactam | more active than Avibactam
9 | O=C1N2C[C@@H](CC[C@H]2c2nnc(C3CCNCC3)o2)N1OS(=O)(=O)O [Compound 711, (2S,5R)-7-oxo-2-(5-(piperidin-4-yl)-1,3,4-oxadiazol-2-yl)-1,6-diazabicyclo[3.2.1]octan-6-yl hydrogen sulfate] | more active than Avibactam | more active than Avibactam
10 | N=C(N)N[C@H]1C[C@H](c2nnc([C@@H]3CC[C@@H]4CN3C(=O)N4OS(=O)(=O)O)o2)C1 [Compound 748, (2S,5R)-2-(5-((1r,3S)-3-guanidinocyclobutyl)-1,3,4-oxadiazol-2-yl)-7-oxo-1,6-diazabicyclo[3.2.1]octan-6-yl hydrogen sulfate] | – | more active than Avibactam
11 | N[C@H]1C[C@H](NCc2nnc([C@@H]3CC[C@@H]4CN3C(=O)N4OS(=O)(=O)O)o2)C1 [Compound 757, (2S,5R)-2-(5-((((1r,3S)-3-aminocyclobutyl)amino)methyl)-1,3,4-oxadiazol-2-yl)-7-oxo-1,6-diazabicyclo[3.2.1]octan-6-yl hydrogen sulfate] | – | more active than Avibactam
12 | O=C1N2C[C@@H](CC[C@H]2c2nnc(CNC3CCNCC3)o2)N1OS(=O)(=O)O [Compound 769, (2S,5R)-7-oxo-2-(5-((piperidin-4-ylamino)methyl)-1,3,4-oxadiazol-2-yl)-1,6-diazabicyclo[3.2.1]octan-6-yl hydrogen sulfate] | – | more active than Avibactam
13 | NC1CCN(c2nnc([C@@H]3CC[C@@H]4CN3C(=O)N4OS(=O)(=O)O)o2)CC1 [Compound 773, (2S,5R)-2-(5-(4-aminopiperidin-1-yl)-1,3,4-oxadiazol-2-yl)-7-oxo-1,6-diazabicyclo[3.2.1]octan-6-yl hydrogen sulfate] | – | more active than Avibactam
14 | NC1CCN(CCc2nnc([C@@H]3CC[C@@H]4CN3C(=O)N4OS(=O)(=O)O)o2)CC1 [Compound 775, (2S,5R)-2-(5-(2-(4-aminopiperidin-1-yl)ethyl)-1,3,4-oxadiazol-2-yl)-7-oxo-1,6-diazabicyclo[3.2.1]octan-6-yl hydrogen sulfate] | more active than Avibactam | –
15 | O=C1N2C[C@@H](CC[C@H]2c2nnc([C@@H]3CNCCN3)o2)N1OS(=O)(=O)O [Compound 778, (2S,5R)-7-oxo-2-(5-((S)-piperazin-2-yl)-1,3,4-oxadiazol-2-yl)-1,6-diazabicyclo[3.2.1]octan-6-yl hydrogen sulfate] | – | more active than Avibactam
16 | N[C@H]1CC[C@@H](c2nnc([C@@H]3CC[C@@H]4CN3C(=O)N4OS(=O)(=O)O)o2)CC1 [Compound 780, (2S,5R)-2-(5-((1s,4R)-4-aminocyclohexyl)-1,3,4-oxadiazol-2-yl)-7-oxo-1,6-diazabicyclo[3.2.1]octan-6-yl hydrogen sulfate] | – | more active than Avibactam
17 | N[C@H]1CC[C@H](c2nnc([C@@H]3CC[C@@H]4CN3C(=O)N4OS(=O)(=O)O)o2)CC1 [Compound 781, (2S,5R)-2-(5-((1r,4S)-4-aminocyclohexyl)-1,3,4-oxadiazol-2-yl)-7-oxo-1,6-diazabicyclo[3.2.1]octan-6-yl hydrogen sulfate] | – | more active than Avibactam
18 | O=C1N2C[C@@H](CC[C@H]2c2nnc(CCCN3CCNCC3)o2)N1OS(=O)(=O)O [Compound 792, (2S,5R)-7-oxo-2-(5-(3-(piperazin-1-yl)propyl)-1,3,4-oxadiazol-2-yl)-1,6-diazabicyclo[3.2.1]octan-6-yl hydrogen sulfate] | – | more active than Avibactam
19 | O=C1N2C[C@@H](CC[C@H]2c2nnc(N3CCNCC3)s2)N1OS(=O)(=O)O [Compound 797, (2S,5R)-7-oxo-2-(5-(piperazin-1-yl)-1,3,4-thiadiazol-2-yl)-1,6-diazabicyclo[3.2.1]octan-6-yl hydrogen sulfate] | – | more active than Avibactam
